# Measurements taken from ChEMBL document CHEMBL2086313, “Structure-based design of novel potent protein kinase CK2 (CK2) inhibitors with phenyl-azole scaffolds” (J Med Chem, 2012).
# Columns and labels:
# [1] = tested on: A549; test: cells; details: Homo sapiens, A549, 72 h
# [2] = tested on: HCT-116; test: cells; details: Homo sapiens, HCT-116, 72 h
# [3] = tested on: MCF7; test: Antiproliferative activity against human MCF7 cells after 72 hrs by MTS assay; details: MCF7, 72 h
# [4] = biological target: T1, Casein kinase II subunit alpha (Homo sapiens, UniProt P68400); test: Inhibition of GST fused human CK2alpha expressed in Escherichia coli BL21 at 0.3 uM
# [5] = biological target: Dual specificity tyrosine-phosphorylation-regulated kinase 1B (Homo sapiens) (UniProt Q9Y463); test: Inhibition of DYRK1B at 0.3 uM
# [6] = biological target: Receptor-type tyrosine-protein kinase FLT3 (Homo sapiens) (UniProt P36888); test: Inhibition of FLT3 at 0.3 uM
# [7] = biological target: T1, Casein kinase II subunit alpha; test: Competitive inhibition of GST fused human CK2alpha expressed in Escherichia coli BL21 after 10 mins in presence of ATP
# [8] = biological target: T2, Casein kinase II subunit alpha' (Homo sapiens, UniProt P19784); test: Inhibition of GST fused human CK2alpha' expressed in Escherichia coli BL21 at 0.3 uM
# [9] = biological target: RAC-alpha serine/threonine-protein kinase (Homo sapiens) (UniProt P31749); test: Inhibition of AKT1 at 3 uM
# [10] = biological target: T2, Casein kinase II subunit alpha'; test: Competitive inhibition of GST fused human CK2alpha' expressed in Escherichia coli BL21 after 10 mins in presence of ATP
# [11] = biological target: Cyclin-dependent kinase 6 (Homo sapiens) (UniProt Q00534); test: Inhibition of CDK6 at 3 uM
SMILES,IC50 [1] [µM],IC50 [2] [µM],IC50 [3] [µM],inhibition [4] [%],inhibition [5] [%],inhibition [6] [%],IC50 [7] [µM],inhibition [8] [%],inhibition [9] [%],IC50 [10] [µM],inhibition [11] [%]
COc1ccc(C(=O)Nc2nnc(-c3ccc(C(=O)O)cc3)s2)cc1,> 30,> 30,> 30,,,,,,,,
COc1ccc(C(=O)Nc2ncc(-c3ccc(C(=O)O)cc3)s2)cc1,2.6,1.6,2.4,84,82,76,0.032,> 100,0.8,0.046,32
O=C(O)Cc1ccn(-c2cncc(-n3ncc4ccc(NC5CCCC5)cc43)n2)c1,36,24,75,,,,,,,,
O=C(O)c1ccc2c(c1)nc(Nc1cccc(Cl)c1)c1ccncc12 [SILMITASERTIB],8.2,5.2,6.5,,,,,,,,
COc1ccc(C(=O)Nc2cc(-c3ccc(C(=O)O)cc3)[nH]n2)cc1,> 30,> 30,> 30,,,,,,,,
